Reference: ChEMBL document CHEMBL3351754, “Rational use of plasma protein and tissue binding data in drug design” (J Med Chem, 2014)

What was measured:
[1] = Fraction unbound in 100% human serum; assay type: ADME, cell-free
[2] = Fraction unbound in mouse brain

Structure (SMILES) | fraction unbound [1] | fraction unbound [2]
O=C(O)[C@H](Oc1cccc(C(F)(F)F)c1)c1ccc(Cl)cc1 [MBX-102 ACID FORM] | 0.009 | –
CCCC(C)(COC(N)=O)COC(N)=O [MEPROBAMATE] | – | 0.76
